Experimental findings from patent US7507734B2, “Pyridazinone derivatives” (Aventis Pharma S.A., priority 2004, dated 2009) are described below.

Molecules are shown by their SMILES.

The assay concerns the target CDK2/Cyclin E kinase (Homo sapiens, UniProt P24941). Nature of the assay: CDK2/Cyclin E Flashplate Assay: 96-well format. The settings on record: streptavidin-coated flashplate, biotinylated-Rb peptide substrate 10 μM, 33PγATP/ATP 1 μM, CDK2/Cyclin E 20 nM, 30 minute at 30° C., 1% DMSO. The format is biochemical. How it is done:
Functional Measurements for Determination of IC50-Values
CDK2/Cyclin E Flashplate Assay: 96-Well Format
A 96-well streptavidin-coated flashplate is used to assay potency of compounds according formula (I) against CDK2/Cyclin E kinase. To carry out the assay, biotinylated-Rb peptide substrate (Biotin-[…]-OH) is solubilized at 1 mM in kinase buffer (Hepes 50 mM, NaCI 1 mM, MgCI2 5mM pH 7.5) as a stock solution conserved at −20° C. in aliquots of 110 μl. The day of the experiment, an aliquot of this solution is thawed and diluted to 14.3 μM in kinase buffer, containing 1 mM dithithreitol (DTT) added in the buffer extemporarily.
70 μl of this solution is added in each well of the flashplate in order to achieve a final concentration of 10 μM (100 μl reactionnal volume). Serial dilutions of inhibitors are prepared in DMSO from 10 mM stock solutions in order to achieve 1000 μM, 333.3 μM, 111.1 μM, 37.03 μM, 12.35 μM, 4.11 μM and 1.37 μM and all rediluted in kinase buffer+DTT in order to achieve 100 μM, 33.3 μM, 11.1 μM, 3.7 μM, 1.24 μM, 0.41 μM and 0.14 μM in DMSO 10% buffer (vol/vol). 10 μl of each of these solutions (or 10 μl of buffer+DTT for controls) are transferred to the testplate wells in order to achieve 10 μM, 3.33 μM, 1.11 μM, 0.37 μM, 0.12 μM, 0.04 μM and 0.01 μM as final concentrations, 1% DMSO (vol/vol). In each well, 10 μl of a solution of a mix of ^33PγATP/ATP are added in order to achieve 1 μM final concentration and a total of 1 μCi. The kinase reaction is initiated by addition of 10 μl of a solution at 200 nM of CDK2/Cyclin E in kinase buffer+DTT (or buffer+DTT for blanks) in order to achieve 20 nM final concentration. After addition of each reagent, the test-plate is shaken. The plates are incubated 30 minute at 30° C. with a shaking at 650 rpm. At the end of the incubation, the plates are washed 3 times with 300 μl of PBS (without calcium and magnesium) per well. The incorporation of ^33P to the peptide is measured by scintillation counting.

Regarding `O=c1[nH]nc(-c2ccc(O)cc2)cc1-c1cc2ccccc2[nH]1` [Example 2, 6-(4-Hydroxy-phenyl)-4-(1H-indol-2-yl)-2H-pyridazin-3-one], the IC50 (as a rule, the concentration at which inhibition is half-maximal) worked out at 33 nM.

The compound `Cc1ccc2[nH]c(-c3cc(-c4ccncc4)n[nH]c3=O)cc2c1` [Example 14, 4-(5-Methyl-1H-indol-2-yl)-6-pyridin-4-yl-2H-pyridazin-3-one] came in with an IC50 of 26 nM.

For the compound `CCN(CC)CCOc1ccc2cc(-c3cc(-c4ccncc4)n[nH]c3=O)[nH]c2c1` [Example 20, 4-[6-(2-Diethylamino-ethoxy)-1H-indol-2-yl]-6-pyridin-4-yl-2H-pyridazin-3-one], the IC50 is 20 nM.

In the case of `O=c1[nH]nc(-c2ccncc2)cc1-c1cc2ccc(OCc3ccccc3)cc2[nH]1` [Example 23, 4-(6-Benzyloxy-1H-indol-2-yl)-6-pyridin-4-yl-2H-pyridazin-3-one], the IC50 was 48 nM.

In the case of `CN(C)CCCOc1ccc2[nH]c(-c3cc(-c4ccncc4)n[nH]c3=O)cc2c1` [Example 30, 4-[5-(3-Dimethylamino-propoxy)-1H-indol-2-yl]-6-pyridin-4-yl-2H-pyridazin-3-one], it took 35 nM to reach half-maximal inhibition (IC50).
